From US9179678B2, “Substituted [1,2,4]triazoles and substituted tetrazoles as herbicides” (SYNGENTA LIMITED, priority 2012, dated 2015)

Test system: Alopecurus myosuroides (ALOMY)
Assay: Post-emergence glasshouse herbicide test
Format: in vivo
Conditions: POST Application, 1000 g/h, after 13 days
Method: (§1) Seeds of a variety of test species are sown in standard soil in pots (Alopecurus myosuroides (ALOMY), Setaria faberi (SETFA), Echinochloa crus-galli (ECHCG), Solanum nigrum (SOLNI), Amaranthus retoflexus (AMARE), Ipomoea hederacea (IPOHE)). After cultivation for one day (pre-emergence) or after 8 days cultivation (post-emergence) under controlled conditions in a glasshouse (at 24/16° C., day/night; 14 hours light; 65% humidity), the plants are sprayed with an aqueous spray solution derived from the formulation of the technical active ingredient in acetone/water (50:50) solution containing 0.5% Tween 20 (polyoxyethelyene sorbitan monolaurate, CAS RN 9005-64-5). Compounds ae applied at 1000 g/h. The test plants are then grown in a glasshouse under controlled conditions in a glasshouse (at 24/16° C., day/night; 14 hours light; 65% humidity) and watered twice daily. After 13 days for pre and post-emergence, the test is evaluated for the percentage damage caused to the plant. The biological activities are shown in the following table on a five point scale (5=80-100%; 4=60-79%; 3=40-59%; 2=20-39%; 1=0-19%).

SMILES | percentage damage caused to the plant, ALOMY
Cc1cc(-n2c(=O)c(C(=O)Nc3nnnn3C)nc3ccccc32)ccc1Cl [Compound 5.036] | 2 (2=20-39%)
Cn1nnnc1NC(=O)c1nc2ccccc2n(-c2ccsc2)c1=O [Compound 5.005] | 2 (2=20-39%)
Cn1nnnc1NC(=O)c1cc2cnc(Cl)cc2n(-c2ccccc2)c1=O [Compound 2.001] | 1 (1=0-19%)
Cn1nnnc1NC(=O)c1nc2ccccc2n(-c2cccc(C(F)(F)F)c2)c1=O [Compound 5.026] | 5 (5=80-100%)
Cn1nnnc1NC(=O)c1nc2ccc(C(F)(F)F)cc2n(-c2ccccc2)c1=O [Compound 5.006] | 3 (3=40-59%)

Test system: Amaranthus retoflexus (AMARE)
Assay: Post-emergence glasshouse herbicide test
Format: in vivo
Conditions: POST Application, 1000 g/h, after 13 days
Method: as §1

SMILES | percentage damage caused to the plant, AMARE
Cc1cc(-n2c(=O)c(C(=O)Nc3nnnn3C)nc3ccccc32)ccc1Cl [Compound 5.036] | 5 (5=80-100%)
Cn1nnnc1NC(=O)c1nc2ccccc2n(-c2ccsc2)c1=O [Compound 5.005] | 5 (5=80-100%)
Cn1nnnc1NC(=O)c1cc2cnc(Cl)cc2n(-c2ccccc2)c1=O [Compound 2.001] | 5 (5=80-100%)
Cn1nnnc1NC(=O)c1nc2ccccc2n(-c2cccc(C(F)(F)F)c2)c1=O [Compound 5.026] | 5 (5=80-100%)
Cn1nnnc1NC(=O)c1nc2ccc(C(F)(F)F)cc2n(-c2ccccc2)c1=O [Compound 5.006] | 5 (5=80-100%)

Test system: Echinochloa crus-galli (ECHCG)
Assay: Post-emergence glasshouse herbicide test
Format: in vivo
Conditions: POST Application, 1000 g/h, after 13 days
Method: as §1

SMILES | percentage damage caused to the plant, ECHCG
Cc1cc(-n2c(=O)c(C(=O)Nc3nnnn3C)nc3ccccc32)ccc1Cl [Compound 5.036] | 5 (5=80-100%)
Cn1nnnc1NC(=O)c1nc2ccccc2n(-c2ccsc2)c1=O [Compound 5.005] | 5 (5=80-100%)
Cn1nnnc1NC(=O)c1cc2cnc(Cl)cc2n(-c2ccccc2)c1=O [Compound 2.001] | 1 (1=0-19%)
Cn1nnnc1NC(=O)c1nc2ccccc2n(-c2cccc(C(F)(F)F)c2)c1=O [Compound 5.026] | 5 (5=80-100%)
Cn1nnnc1NC(=O)c1nc2ccc(C(F)(F)F)cc2n(-c2ccccc2)c1=O [Compound 5.006] | 4 (4=60-79%)

Test system: Ipomoea hederacea (IPOHE)
Assay: Post-emergence glasshouse herbicide test
Format: in vivo
Conditions: POST Application, 1000 g/h, after 13 days
Method: as §1

SMILES | percentage damage caused to the plant, IPOHE
Cc1cc(-n2c(=O)c(C(=O)Nc3nnnn3C)nc3ccccc32)ccc1Cl [Compound 5.036] | 5 (5=80-100%)
Cn1nnnc1NC(=O)c1nc2ccccc2n(-c2ccsc2)c1=O [Compound 5.005] | 5 (5=80-100%)
Cn1nnnc1NC(=O)c1cc2cnc(Cl)cc2n(-c2ccccc2)c1=O [Compound 2.001] | 5 (5=80-100%)
Cn1nnnc1NC(=O)c1nc2ccccc2n(-c2cccc(C(F)(F)F)c2)c1=O [Compound 5.026] | 5 (5=80-100%)
Cn1nnnc1NC(=O)c1nc2ccc(C(F)(F)F)cc2n(-c2ccccc2)c1=O [Compound 5.006] | 5 (5=80-100%)

Test system: Solanum nigrum (SOLNI)
Assay: Post-emergence glasshouse herbicide test
Format: in vivo
Conditions: POST Application, 1000 g/h, after 13 days
Method: as §1

SMILES | percentage damage caused to the plant, SOLNI
Cc1cc(-n2c(=O)c(C(=O)Nc3nnnn3C)nc3ccccc32)ccc1Cl [Compound 5.036] | 5 (5=80-100%)
Cn1nnnc1NC(=O)c1nc2ccccc2n(-c2ccsc2)c1=O [Compound 5.005] | 5 (5=80-100%)
Cn1nnnc1NC(=O)c1cc2cnc(Cl)cc2n(-c2ccccc2)c1=O [Compound 2.001] | 5 (5=80-100%)
Cn1nnnc1NC(=O)c1nc2ccccc2n(-c2cccc(C(F)(F)F)c2)c1=O [Compound 5.026] | 5 (5=80-100%)
Cn1nnnc1NC(=O)c1nc2ccc(C(F)(F)F)cc2n(-c2ccccc2)c1=O [Compound 5.006] | 5 (5=80-100%)

Test system: Setaria faberi (SETFA)
Assay: Post-emergence glasshouse herbicide test
Format: in vivo
Conditions: POST Application, 1000 g/h, after 13 days
Method: as §1, with “Compounds ae applied at 1000 g/h.” left out

SMILES | percentage damage caused to the plant, SETFA
Cc1cc(-n2c(=O)c(C(=O)Nc3nnnn3C)nc3ccccc32)ccc1Cl [Compound 5.036] | 4 (4=60-79%)
Cn1nnnc1NC(=O)c1nc2ccccc2n(-c2ccsc2)c1=O [Compound 5.005] | 5 (5=80-100%)
Cn1nnnc1NC(=O)c1cc2cnc(Cl)cc2n(-c2ccccc2)c1=O [Compound 2.001] | 1 (1=0-19%)
Cn1nnnc1NC(=O)c1nc2ccccc2n(-c2cccc(C(F)(F)F)c2)c1=O [Compound 5.026] | 5 (5=80-100%)
Cn1nnnc1NC(=O)c1nc2ccc(C(F)(F)F)cc2n(-c2ccccc2)c1=O [Compound 5.006] | 4 (4=60-79%)

Test system: Alopecurus myosuroides (ALOMY)
Assay: Pre-emergence glasshouse herbicide test
Format: in vivo
Conditions: PRE Application, 1000 g/h, after 13 days
Method: as §1

SMILES | percentage damage caused to the plant, ALOMY
Cc1cc(-n2c(=O)c(C(=O)Nc3nnnn3C)nc3ccccc32)ccc1Cl [Compound 5.036] | 3 (3=40-59%)
Cn1nnnc1NC(=O)c1nc2ccccc2n(-c2ccsc2)c1=O [Compound 5.005] | 2 (2=20-39%)
Cn1nnnc1NC(=O)c1cc2cnc(Cl)cc2n(-c2ccccc2)c1=O [Compound 2.001] | 1 (1=0-19%)
Cn1nnnc1NC(=O)c1nc2ccccc2n(-c2cccc(C(F)(F)F)c2)c1=O [Compound 5.026] | 5 (5=80-100%)
Cn1nnnc1NC(=O)c1nc2ccc(C(F)(F)F)cc2n(-c2ccccc2)c1=O [Compound 5.006] | 3 (3=40-59%)

Test system: Amaranthus retoflexus (AMARE)
Assay: Pre-emergence glasshouse herbicide test
Format: in vivo
Conditions: PRE Application, 1000 g/h, after 13 days
Method: as §1

SMILES | percentage damage caused to the plant, AMARE
Cc1cc(-n2c(=O)c(C(=O)Nc3nnnn3C)nc3ccccc32)ccc1Cl [Compound 5.036] | 5 (5=80-100%)
Cn1nnnc1NC(=O)c1nc2ccccc2n(-c2ccsc2)c1=O [Compound 5.005] | 5 (5=80-100%)
Cn1nnnc1NC(=O)c1cc2cnc(Cl)cc2n(-c2ccccc2)c1=O [Compound 2.001] | 5 (5=80-100%)
Cn1nnnc1NC(=O)c1nc2ccccc2n(-c2cccc(C(F)(F)F)c2)c1=O [Compound 5.026] | 5 (5=80-100%)
Cn1nnnc1NC(=O)c1nc2ccc(C(F)(F)F)cc2n(-c2ccccc2)c1=O [Compound 5.006] | 5 (5=80-100%)

Test system: Echinochloa crus-galli (ECHCG)
Assay: Pre-emergence glasshouse herbicide test
Format: in vivo
Conditions: PRE Application, 1000 g/h, after 13 days
Method: as §1

SMILES | percentage damage caused to the plant, ECHCG
Cc1cc(-n2c(=O)c(C(=O)Nc3nnnn3C)nc3ccccc32)ccc1Cl [Compound 5.036] | 3 (3=40-59%)
Cn1nnnc1NC(=O)c1nc2ccccc2n(-c2ccsc2)c1=O [Compound 5.005] | 5 (5=80-100%)
Cn1nnnc1NC(=O)c1cc2cnc(Cl)cc2n(-c2ccccc2)c1=O [Compound 2.001] | 1 (1=0-19%)
Cn1nnnc1NC(=O)c1nc2ccccc2n(-c2cccc(C(F)(F)F)c2)c1=O [Compound 5.026] | 5 (5=80-100%)
Cn1nnnc1NC(=O)c1nc2ccc(C(F)(F)F)cc2n(-c2ccccc2)c1=O [Compound 5.006] | 4 (4=60-79%)

Test system: Ipomoea hederacea (IPOHE)
Assay: Pre-emergence glasshouse herbicide test
Format: in vivo
Conditions: PRE Application, 1000 g/h, after 13 days
Method: as §1

SMILES | percentage damage caused to the plant, IPOHE
Cc1cc(-n2c(=O)c(C(=O)Nc3nnnn3C)nc3ccccc32)ccc1Cl [Compound 5.036] | 5 (5=80-100%)
Cn1nnnc1NC(=O)c1nc2ccccc2n(-c2ccsc2)c1=O [Compound 5.005] | 5 (5=80-100%)
Cn1nnnc1NC(=O)c1cc2cnc(Cl)cc2n(-c2ccccc2)c1=O [Compound 2.001] | 2 (2=20-39%)
Cn1nnnc1NC(=O)c1nc2ccccc2n(-c2cccc(C(F)(F)F)c2)c1=O [Compound 5.026] | 5 (5=80-100%)
Cn1nnnc1NC(=O)c1nc2ccc(C(F)(F)F)cc2n(-c2ccccc2)c1=O [Compound 5.006] | 4 (4=60-79%)

Test system: Setaria faberi (SETFA)
Assay: Pre-emergence glasshouse herbicide test
Format: in vivo
Conditions: PRE Application, 1000 g/h, after 13 days
Method: as §1

SMILES | percentage damage caused to the plant, SETFA
Cc1cc(-n2c(=O)c(C(=O)Nc3nnnn3C)nc3ccccc32)ccc1Cl [Compound 5.036] | 4 (4=60-79%)
Cn1nnnc1NC(=O)c1nc2ccccc2n(-c2ccsc2)c1=O [Compound 5.005] | 3 (3=40-59%)
Cn1nnnc1NC(=O)c1cc2cnc(Cl)cc2n(-c2ccccc2)c1=O [Compound 2.001] | 1 (1=0-19%)
Cn1nnnc1NC(=O)c1nc2ccccc2n(-c2cccc(C(F)(F)F)c2)c1=O [Compound 5.026] | 5 (5=80-100%)
Cn1nnnc1NC(=O)c1nc2ccc(C(F)(F)F)cc2n(-c2ccccc2)c1=O [Compound 5.006] | 3 (3=40-59%)

Test system: Solanum nigrum (SOLNI)
Assay: Pre-emergence glasshouse herbicide test
Format: in vivo
Conditions: PRE Application, 1000 g/h, after 13 days
Method: as §1

SMILES | percentage damage caused to the plant, SOLNI
Cc1cc(-n2c(=O)c(C(=O)Nc3nnnn3C)nc3ccccc32)ccc1Cl [Compound 5.036] | 5 (5=80-100%)
Cn1nnnc1NC(=O)c1nc2ccccc2n(-c2ccsc2)c1=O [Compound 5.005] | 5 (5=80-100%)
Cn1nnnc1NC(=O)c1cc2cnc(Cl)cc2n(-c2ccccc2)c1=O [Compound 2.001] | 4 (4=60-79%)
Cn1nnnc1NC(=O)c1nc2ccccc2n(-c2cccc(C(F)(F)F)c2)c1=O [Compound 5.026] | 5 (5=80-100%)
Cn1nnnc1NC(=O)c1nc2ccc(C(F)(F)F)cc2n(-c2ccccc2)c1=O [Compound 5.006] | 5 (5=80-100%)
